Data set [1] is described as follows: Zebrafish embryo mortality/toxicity. The format is in vivo. The conditions noted are these: wild-type, in vivo; zebrafish embryos, overnight exposure, 0.5 to 1000 µM; mean of three biological replicates ± standard deviation. The protocol: (§1) The zebrafish embryos were obtained by natural pairwise breeding, and were treated essentially as described previously.
(§2) The compounds were dissolved in dimethylsulfoxide (DMSO) in order to prepare a stock concentration of 10 mM. The embryos treated with 0.10% DMSO (v/v) served as the negative controls.
(§3) The fish were kept following the national and international guidelines for the care and use of laboratory animals. The fertilized eggs were obtained by the natural pairwise breeding of adult fish. The approval of the Ethics Committee for the use and care of laboratory animals was not needed, as zebrafish larvae less than 5 days post fertilization were used.
(§4) A stock solution of 50 mM was prepared by dissolving the compounds in dimethyl sulfoxide (DMSO). At least 30 fertilized eggs were sorted and placed in 60-mm sterile glass Petri dishes. A serial dilution of the compounds was prepared by adding the required amount of the compound directly into 5 mL water, and the zebrafish embryos were then exposed to serial dilutions (0.5 to 1000 µM) of each compound overnight. The number of dead and living embryos were counted after the overnight exposure.

The test system of another data set is zebrafish embryos. Kind of data set: Zebrafish embryo mortality/toxicity. The format is in vivo. The conditions noted are these: maximum concentration tested 1 mM, versus DMSO control. Here is the method: as §1, §2, §3, §4
The subject of the next data set is MDA-MB-231 cells. Kind of data set: MTT cell viability assay, MDA-MB-231. The format is cell-based. The conditions noted are these: Homo sapiens, 72 h treatment. The protocol:
(§5) The antiproliferative activity of the synthesized compounds was evaluated by the 3-(4,5-dimethylthiazol-2-yl)-2,5-diphenyl tetrazolium bromide (MTT) cell viability assay. Two types of breast cancer cell lines—namely MCF-7, which has estrogen and progesterone receptors, and MDA-MB-231, which is triple negative—were used, in addition to a colon cancer cell line (HCT-116).
(§6) The target products 3a–o were evaluated for their antiproliferative activity using the MTT viability assay of the MCF-7, MDA-MB-231 and HCT-116 cell lines (in triplicate) on at least three independent occasions for the determination of the reported mean values.
(§7) The three human tumor cell lines MCF-7, MDA-MB-231 and HCT-116 were cultured in Dulbecco’s Modified Eagle’s Medium (DMEM) with 10% fetal bovine serum, 2 mM L-glutamine and 100 µg/mL penicillin/streptomycin. The cells were maintained at 37 °C in 5% CO2 in a humidified incubator. All of the cells were sub-cultured 3 times/week by trypsinization using TrypLE Express (1×).
(§8) In order to calculate the relative IC50 values, the antiproliferative effect of compounds 3a–o was tested in three cancer cell lines (MCF-7, MDA-MB-231, HCT-116) and normal epithelial embryonic kidney cells (HEK-293) using the MTT viability assay. The cells were seeded in 96-well plates at a density of 10 × 10^3 cells/mL, in a total volume of 200 µL per well. In total, 0.1% DMSO was used as a vehicle control. […] The culture medium was then removed, and the cells were washed with phosphate-buffered saline (PBS), and 100 µL MTT was added (for a final concentration of 5 mg/mL MTT). The cells were incubated for 4 h in darkness at 37 °C. Next, 200 µL DMSO was added to each well, and the cells were maintained at room temperature in darkness for 20 min. The absorbance was detected with a microplate reader at 570 nm. The results were expressed as a percentage of viability relative to the vehicle control (100%). The dose-response curves were plotted, and the IC50 values were obtained using Prism software (GraphPad Software, Inc., La Jolla, CA, USA). All of the experiments were repeated in three independent experiments.
(In general: Tetrazolium assays rely on reduction of a dye to a coloured formazan, in cell work by metabolically active cells.)

A further data set concerns HCT-116 cells. Description: MTT cell viability assay, HCT-116. The format is cell-based. To be noted: Homo sapiens, 72 h treatment. The protocol:
as §5, §6, §7, §8

For the next data set, the system named is HEK-293 cells. Kind of data set: MTT cell viability assay, non-tumorigenic HEK-293. The format is cell-based. The conditions noted are these: Homo sapiens, HEK293, 72 h, non-tumorigenic cell line. Here is the method: Additional assays were run with 3a, the most promising compound. Its toxicity was evaluated using HEK-293 (normal human embryonic kidney), which is a non-tumorigenic cell line.
In order to calculate the relative IC50 values, the antiproliferative effect of compounds 3a–o was tested in three cancer cell lines (MCF-7, MDA-MB-231, HCT-116) and normal epithelial embryonic kidney cells (HEK-293) using the MTT viability assay. The cells were seeded in 96-well plates at a density of 10 × 10^3 cells/mL, in a total volume of 200 µL per well. In total, 0.1% DMSO was used as a vehicle control. After 24 h, the cells were treated with 2 µL of the test compound, which had been pre-prepared as a stock solution to furnish the concentration range of the study (0.01–100 µM), and re-incubated for 72 h. The culture medium was then removed, and the cells were washed with phosphate-buffered saline (PBS), and 100 µL MTT was added (for a final concentration of 5 mg/mL MTT). The cells were incubated for 4 h in darkness at 37 °C. Next, 200 µL DMSO was added to each well, and the cells were maintained at room temperature in darkness for 20 min. The absorbance was detected with a microplate reader at 570 nm. The results were expressed as a percentage of viability relative to the vehicle control (100%). […]

A further data set concerns MCF-7 cells. Description: MTT cell viability assay, MCF-7. It is filed as cell-based, human. To be noted: 72 h treatment. Here is the method:
as §5, §6, §7, §8

“Also recorded” adds a separate entry of the source.

These results are taken from publication PMC7926980, “The Antiproliferative and Apoptotic Effect of a Novel Synthesized S-Triazine Dipeptide Series, and Toxicity Screening in Zebrafish Embryos” (Molecules, 2021).

The LC50 is the concentration that kills 50% of the test population. Read a high LC50 as lower toxicity. In general, IC50 refers to the point on the concentration scale where inhibition reaches its midpoint.

For `COC(=O)CNC(=O)CNc1nc(Nc2ccccc2)nc(N2CCOCC2)n1` [Compound 3a, Methyl (4-morpholino-6-(phenylamino)-1,3,5-triazin-2-yl) glycylglycinate], in data set [1], the median lethal concentration (LC50) was greater than 1000 µM. Besides, the “toxicity / mortality in zebrafish embryos” value in the data set with zebrafish embryos is recorded as “did not show any toxicity; also recorded: same mortality ratio as the control”. In addition, the half-inhibitory concentration (IC50) in the data set on MDA-MB-231 cells was 9.36 ± 1.15 µM; with HCT-116 cells, 17.9 ± 3.74 µM; with HEK-293 cells it was greater than 50 µM; in the data set on MCF-7 cells, 0.82 ± 0.37 µM; in the data set on MCF-7 cells (Homo sapiens, MCF7, 72 h) it was less than 1 µM.
